# Experimental data from patent EP4722207A1, “OXOISOINDOLINYL-SUBSTITUTED TETRAHYDROPYRIMIDINEDIONE DERIVATIVE AND USE THEREOF” (Gluetacs Therapeutics (Shanghai) Co., Ltd., priority 2023, dated 2024).
# Key:
# [1] = tested on: MDA-MB-231; experiment: Cell viability assay (CellTiter-Meiluncell Luminescent), tumor cell proliferation, MDA-MB-231; conditions: Homo sapiens, MDA-MB-231, 96 h; for inhibition at 0.01 µM: read-out: Inhibition Rate at 10 nM (%); for inhibition at 0.5 µM: read-out: Inhibition Rate at 500 nM (%)
# [2] = target: T1, IKZF3 (Homo sapiens, UniProt Q96SW2+Q9UKT9); experiment: Western-blot assay, substrate protein degradation in hPBMCs: IKZF3; format: cell-based; conditions: 24 hours of compound treatment, 50 nM and 500 nM
# T1 construct: effects of the compounds of the present disclosure on the expression of target proteins in cells; endogenous in cells; host or cells: human PBMCs (hPBMCs)
# [3] = target: T2, CK1α (Homo sapiens, UniProt P48729+Q96SW2); experiment: Western-blot assay, substrate protein degradation in hPBMCs: CK1α; format: cell-based; conditions: 24 hours of compound treatment, 50 nM and 500 nM
# T2 construct: effects of the compounds of the present disclosure on the expression of target proteins in cells; endogenous in cells; host or cells: human PBMCs (hPBMCs)
# [4] = target: T3, IKZF2 (Homo sapiens, UniProt Q96SW2+Q9UKS7); experiment: Western-blot assay, substrate protein degradation in hPBMCs: IKZF2; format: cell-based; conditions: 24 hours of compound treatment, 50 nM and 500 nM
# T3 construct: effects of the compounds of the present disclosure on the expression of target proteins in cells; endogenous in cells; host or cells: human PBMCs (hPBMCs)
# [5] = target: T4, GSPT1 (Homo sapiens, UniProt P15170+Q96SW2); experiment: Western-blot assay, substrate protein degradation in hPBMCs: GSPT1; format: cell-based; conditions: 24 hours of compound treatment, 50 nM and 500 nM
# T4 construct: effects of the compounds of the present disclosure on the expression of target proteins in cells; endogenous in cells; host or cells: human PBMCs (hPBMCs)
# [6] = target: T5, WEE1 (Homo sapiens, UniProt P30291+Q96SW2); experiment: Western-blot assay, substrate protein degradation in hPBMCs: WEE1; format: cell-based; conditions: 24 hours of compound treatment, 50 nM and 500 nM
# T5 construct: effects of the compounds of the present disclosure on the expression of target proteins in cells; endogenous in cells; host or cells: human PBMCs (hPBMCs)
# [7] = target: T6, IKZF1 (Homo sapiens, UniProt Q13422+Q96SW2); experiment: Western-blot assay, substrate protein degradation in hPBMCs: IKZF1; format: cell-based; conditions: 24 hours of compound treatment, 50 nM and 500 nM
# T6 construct: effects of the compounds of the present disclosure on the expression of target proteins in cells; endogenous in cells; host or cells: human PBMCs (hPBMCs)
# [8] = tested on: H2228; experiment: Cell viability assay (CellTiter-Meiluncell Luminescent), tumor cell proliferation, H2228; conditions: Homo sapiens, NCI-H2228, 96 h; for inhibition at 0.01 µM: read-out: Inhibition Rate at 10 nM (%); for inhibition at 0.5 µM: read-out: Inhibition Rate at 500 nM (%)
# Protocol: (§1) The tumor cells used herein were cultured in a cell culture medium listed in table 2 at 37°C in an incubator with 5% CO2. Prior to experimentation, all cell lines used were correctly identified by STR profiling, and tested negative for mycoplasma contamination using a mycoplasma detection kit through routine screenings.
# (§2) On the following day, the test compounds of the present disclosure were subjected to serial dilution. […] Subsequently, 0.5 µL of the test compound dilution was transferred into the 96-well plate containing the cells, with each well containing 100 µL of cell culture medium. […] Into the 96-well plate, the diluted test compounds and corresponding detection reagents were added, resulting in final test compound concentrations of 500 nM and 10 nM, respectively. The experimental procedure is described below using the diluted 2 µM test compound as an example.
# (§3) After the cells were treated with the compounds of the present disclosure for a specified period, the cell viability assay reagent was added to the culture medium according to the kit's instructions to determine cell viability. […] All controls were treated using the same procedure as the compounds of the present disclosure. The growth inhibition curves for the compounds of the present disclosure were plotted using Prism GraphPad software, and the IC50 values were calculated therefrom.
# [9] = tested on: MM.1S; experiment: Cell viability assay (CellTiter-Meiluncell Luminescent), tumor cell proliferation, MM.1S; conditions: Homo sapiens, MM1.S, 96 h; for inhibition at 0.01 µM: read-out: Inhibition Rate at 10 nM (%); for inhibition at 0.5 µM: read-out: Inhibition Rate at 500 nM (%)
# Protocol: as §1, §2, §3
# [10] = tested on: MV-4-11; experiment: Cell viability assay (CellTiter-Meiluncell Luminescent), tumor cell proliferation, MV-4-11; conditions: Homo sapiens, MV4-11, 96 h; for inhibition at 0.01 µM: read-out: Inhibition Rate at 10 nM (%); for inhibition at 0.5 µM: read-out: Inhibition Rate at 500 nM (%)
# [11] = tested on: H292; experiment: Cell viability assay (CellTiter-Meiluncell Luminescent), tumor cell proliferation, H292; conditions: Homo sapiens, NCI-H292, 96 h; for inhibition at 0.01 µM: read-out: Inhibition Rate at 10 nM (%); for inhibition at 0.5 µM: read-out: Inhibition Rate at 500 nM (%)
# T1 sequence (Q9UKT9 whole entry): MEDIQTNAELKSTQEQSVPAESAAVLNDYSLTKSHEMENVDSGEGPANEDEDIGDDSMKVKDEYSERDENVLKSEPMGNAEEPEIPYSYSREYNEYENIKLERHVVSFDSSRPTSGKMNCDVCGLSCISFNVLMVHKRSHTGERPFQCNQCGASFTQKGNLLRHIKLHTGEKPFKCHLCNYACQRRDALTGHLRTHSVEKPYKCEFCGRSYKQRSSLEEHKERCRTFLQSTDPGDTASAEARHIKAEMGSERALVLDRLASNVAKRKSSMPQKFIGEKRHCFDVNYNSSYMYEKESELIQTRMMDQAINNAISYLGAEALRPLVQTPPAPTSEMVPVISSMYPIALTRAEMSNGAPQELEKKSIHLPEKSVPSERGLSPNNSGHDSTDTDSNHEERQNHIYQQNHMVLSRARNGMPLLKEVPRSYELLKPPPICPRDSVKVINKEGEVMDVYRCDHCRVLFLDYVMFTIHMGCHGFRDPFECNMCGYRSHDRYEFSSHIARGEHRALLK
# T1 sequence (Q96SW2 whole entry): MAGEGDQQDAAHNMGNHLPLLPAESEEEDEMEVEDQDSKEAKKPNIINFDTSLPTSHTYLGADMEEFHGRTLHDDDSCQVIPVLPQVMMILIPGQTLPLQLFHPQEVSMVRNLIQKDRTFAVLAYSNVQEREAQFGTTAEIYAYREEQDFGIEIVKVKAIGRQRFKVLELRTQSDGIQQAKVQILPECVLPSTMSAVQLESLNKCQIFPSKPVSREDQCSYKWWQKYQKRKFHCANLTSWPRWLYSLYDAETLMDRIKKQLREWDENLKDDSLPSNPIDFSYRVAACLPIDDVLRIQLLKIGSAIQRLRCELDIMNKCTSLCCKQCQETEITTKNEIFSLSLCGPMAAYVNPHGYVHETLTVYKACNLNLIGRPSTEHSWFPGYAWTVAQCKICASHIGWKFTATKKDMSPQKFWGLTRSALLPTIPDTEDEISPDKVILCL
# T1 sequence (Q16531 whole entry partner): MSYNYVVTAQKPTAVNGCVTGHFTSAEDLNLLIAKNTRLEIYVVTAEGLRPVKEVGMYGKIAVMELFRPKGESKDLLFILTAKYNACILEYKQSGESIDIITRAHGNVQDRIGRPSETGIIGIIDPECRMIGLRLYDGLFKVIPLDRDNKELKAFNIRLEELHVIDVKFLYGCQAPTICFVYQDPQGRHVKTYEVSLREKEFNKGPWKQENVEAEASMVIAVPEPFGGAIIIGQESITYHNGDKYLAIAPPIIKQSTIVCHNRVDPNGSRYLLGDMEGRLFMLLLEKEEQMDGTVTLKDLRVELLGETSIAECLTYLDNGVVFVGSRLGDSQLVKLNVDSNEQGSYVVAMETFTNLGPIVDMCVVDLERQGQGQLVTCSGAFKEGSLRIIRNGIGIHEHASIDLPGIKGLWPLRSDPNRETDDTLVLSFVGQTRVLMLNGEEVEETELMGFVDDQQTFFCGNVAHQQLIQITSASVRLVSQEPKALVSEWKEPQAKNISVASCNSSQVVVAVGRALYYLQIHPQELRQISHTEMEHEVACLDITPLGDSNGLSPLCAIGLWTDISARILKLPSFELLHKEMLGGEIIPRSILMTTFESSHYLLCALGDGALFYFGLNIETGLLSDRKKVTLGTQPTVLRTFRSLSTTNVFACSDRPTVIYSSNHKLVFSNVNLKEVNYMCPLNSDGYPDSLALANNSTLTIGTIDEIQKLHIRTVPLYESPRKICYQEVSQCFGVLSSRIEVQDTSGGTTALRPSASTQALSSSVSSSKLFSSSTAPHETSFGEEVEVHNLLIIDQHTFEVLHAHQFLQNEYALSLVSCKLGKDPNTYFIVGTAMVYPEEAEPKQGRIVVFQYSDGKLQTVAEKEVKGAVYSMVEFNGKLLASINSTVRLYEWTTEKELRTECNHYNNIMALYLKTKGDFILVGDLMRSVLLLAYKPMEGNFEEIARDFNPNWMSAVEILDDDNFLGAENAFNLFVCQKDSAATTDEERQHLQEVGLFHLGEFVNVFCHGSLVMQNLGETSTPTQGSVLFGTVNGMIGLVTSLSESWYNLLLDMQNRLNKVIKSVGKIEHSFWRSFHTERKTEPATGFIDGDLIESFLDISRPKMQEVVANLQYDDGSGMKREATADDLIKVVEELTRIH
# T5 sequence (P30291 whole entry): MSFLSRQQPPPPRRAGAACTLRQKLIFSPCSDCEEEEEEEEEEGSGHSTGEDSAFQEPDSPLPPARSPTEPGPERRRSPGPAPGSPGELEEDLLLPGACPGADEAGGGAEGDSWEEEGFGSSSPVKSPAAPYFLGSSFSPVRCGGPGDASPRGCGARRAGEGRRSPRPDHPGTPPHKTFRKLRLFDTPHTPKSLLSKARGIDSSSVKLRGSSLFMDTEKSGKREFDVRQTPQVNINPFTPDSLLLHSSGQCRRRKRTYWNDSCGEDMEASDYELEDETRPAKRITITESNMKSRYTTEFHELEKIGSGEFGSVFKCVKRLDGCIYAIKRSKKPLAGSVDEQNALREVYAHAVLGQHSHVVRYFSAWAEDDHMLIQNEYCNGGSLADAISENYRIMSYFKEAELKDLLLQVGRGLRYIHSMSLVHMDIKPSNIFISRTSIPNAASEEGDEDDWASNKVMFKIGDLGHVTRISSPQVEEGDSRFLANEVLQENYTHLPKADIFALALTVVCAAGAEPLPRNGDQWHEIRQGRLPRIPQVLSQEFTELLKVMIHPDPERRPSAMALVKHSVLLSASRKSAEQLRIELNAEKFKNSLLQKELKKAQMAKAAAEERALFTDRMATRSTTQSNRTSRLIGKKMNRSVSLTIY
# T5 sequence (Q96SW2 whole entry): as the sequence (Q96SW2 whole entry) above
# T5 sequence (Q16531 whole entry partner): as the sequence (Q16531 whole entry partner) above
# T6 sequence (Q13422 whole entry): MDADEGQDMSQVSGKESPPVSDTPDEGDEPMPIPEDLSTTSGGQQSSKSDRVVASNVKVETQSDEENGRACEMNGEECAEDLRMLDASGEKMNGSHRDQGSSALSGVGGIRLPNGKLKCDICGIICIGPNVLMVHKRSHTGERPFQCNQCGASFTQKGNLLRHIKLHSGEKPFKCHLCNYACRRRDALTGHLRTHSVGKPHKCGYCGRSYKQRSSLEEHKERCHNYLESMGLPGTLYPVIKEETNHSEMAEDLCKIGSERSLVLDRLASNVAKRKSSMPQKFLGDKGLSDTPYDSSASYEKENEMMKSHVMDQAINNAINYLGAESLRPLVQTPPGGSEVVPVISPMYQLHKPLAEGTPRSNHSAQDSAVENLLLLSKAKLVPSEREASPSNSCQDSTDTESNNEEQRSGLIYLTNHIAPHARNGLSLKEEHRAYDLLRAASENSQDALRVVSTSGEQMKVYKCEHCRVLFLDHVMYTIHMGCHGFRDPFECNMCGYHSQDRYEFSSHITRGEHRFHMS
# T6 sequence (Q96SW2 whole entry): as the sequence (Q96SW2 whole entry) above
# T6 sequence (Q16531 whole entry partner): as the sequence (Q16531 whole entry partner) above
# T4 sequence (P15170 whole entry): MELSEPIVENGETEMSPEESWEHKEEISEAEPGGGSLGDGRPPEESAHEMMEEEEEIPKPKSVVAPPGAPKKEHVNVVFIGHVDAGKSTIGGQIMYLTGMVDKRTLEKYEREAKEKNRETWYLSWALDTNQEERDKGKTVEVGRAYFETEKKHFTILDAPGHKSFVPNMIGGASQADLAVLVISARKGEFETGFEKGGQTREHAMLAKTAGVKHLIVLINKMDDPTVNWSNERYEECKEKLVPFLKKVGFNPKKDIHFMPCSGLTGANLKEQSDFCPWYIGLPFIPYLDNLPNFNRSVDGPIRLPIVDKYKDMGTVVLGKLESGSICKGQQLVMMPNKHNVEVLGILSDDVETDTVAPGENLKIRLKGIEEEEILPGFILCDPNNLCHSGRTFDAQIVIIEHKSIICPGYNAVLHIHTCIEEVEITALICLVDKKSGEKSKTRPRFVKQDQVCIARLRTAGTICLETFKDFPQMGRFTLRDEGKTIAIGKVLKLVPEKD
# T4 sequence (Q96SW2 whole entry): as the sequence (Q96SW2 whole entry) above
# T4 sequence (Q16531 whole entry partner): as the sequence (Q16531 whole entry partner) above
# T2 sequence (P48729 whole entry): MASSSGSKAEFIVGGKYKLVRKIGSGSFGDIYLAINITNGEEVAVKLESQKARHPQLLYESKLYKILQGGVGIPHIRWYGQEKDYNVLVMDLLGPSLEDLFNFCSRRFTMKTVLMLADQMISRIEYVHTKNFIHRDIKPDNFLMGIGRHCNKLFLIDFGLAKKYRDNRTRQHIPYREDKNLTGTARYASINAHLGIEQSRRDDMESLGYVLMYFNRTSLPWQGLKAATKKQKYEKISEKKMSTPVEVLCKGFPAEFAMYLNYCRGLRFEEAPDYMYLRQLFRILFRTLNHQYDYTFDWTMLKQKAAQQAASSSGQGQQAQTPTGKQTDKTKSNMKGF
# T2 sequence (Q96SW2 whole entry): as the sequence (Q96SW2 whole entry) above
# T2 sequence (Q16531 whole entry partner): as the sequence (Q16531 whole entry partner) above
Structure (SMILES),inhibition at 0.01 µM [1] [%],inhibition at 0.5 µM [1] [%],substrate protein remaining % IKZF3 [2],substrate protein remaining % CK1α [3],substrate protein remaining % IKZF2 [4],substrate protein remaining % GSPT1 [5],substrate protein remaining % WEE1 [6],substrate protein remaining % IKZF1 [7],inhibition at 0.01 µM [8] [%],inhibition at 0.5 µM [8] [%],inhibition at 0.01 µM [9] [%],inhibition at 0.5 µM [9] [%],inhibition at 0.01 µM [10] [%],inhibition at 0.5 µM [10] [%],inhibition at 0.01 µM [11] [%],inhibition at 0.5 µM [11] [%]
"O=C1CCN(N2Cc3cc(CN4CC=C(c5cccc(Cl)c5Cl)CC4)ccc3C2=O)C(=O)N1 [GT-08054, 1-(5-((4-(2,3-dichlorophenyl)-3,6-dihydropyridin-1(2H)-yl)methyl)-1-oxoisoindolin-2-yl)dihydropyrimidine-2,4(1H,3H)-dione]",25 to 40,80 to 100,A (0% ≤ substrate protein remaining % ≤ 80%),A (0% ≤ substrate protein remaining % ≤ 80%),A (0% ≤ substrate protein remaining % ≤ 80%),A (0% ≤ substrate protein remaining % ≤ 80%),A (0% ≤ substrate protein remaining % ≤ 80%),A (0% ≤ substrate protein remaining % ≤ 80%),20 to 25,40 to 60,5 to 10,80 to 100,18 to 25,80 to 100,–,–
"O=C1CCN(N2Cc3cc(CN4CC=C(c5cccc(F)c5Cl)CC4)ccc3C2=O)C(=O)N1 [GT-08055, 1-(5-((4-(2-chloro-3-fluorophenyl)-3,6-dihydropyridin-1(2H)-yl)methyl)-1-oxoisoindolin-2-yl)dihydropyrimidine-2,4(1H,3H)-dione]",18 to 25,60 to 80,A (0% ≤ substrate protein remaining % ≤ 80%),A (0% ≤ substrate protein remaining % ≤ 80%),A (0% ≤ substrate protein remaining % ≤ 80%),A (0% ≤ substrate protein remaining % ≤ 80%),A (0% ≤ substrate protein remaining % ≤ 80%),A (0% ≤ substrate protein remaining % ≤ 80%),10 to 15,20 to 25,-10 to -5,80 to 100,25 to 30,80 to 100,–,–
"Cc1sc2ncnc(N3CCCN(Cc4ccc5c(c4)CN(N4CCC(=O)NC4=O)C5=O)CC3)c2c1C [GT-08062, 1-(5-((4-(5,6-dimethylthieno[2,3-d]pyrimidin-4-yl)-1,4-diazepan-1-yl)methyl)-1-oxoisoindolin-2-yl)dihydropyrimidine-2,4(1H,3H)-dione]",15 to 18,25 to 40,A (0% ≤ substrate protein remaining % ≤ 80%),B (80%< substrate protein remaining %≤ 100%),A (0% ≤ substrate protein remaining % ≤ 80%),B (80%< substrate protein remaining %≤ 100%),B (80%< substrate protein remaining %≤ 100%),B (80%< substrate protein remaining %≤ 100%),25 to 30,30 to 40,30 to 42,30 to 42,–,–,20 to 40,40 to 60
"O=C1CCN(N2C(=O)c3ccc(CN4CCN(c5ncnc6sc(Br)cc56)CC4)cc3C2=O)C(=O)N1 [GT-08096, 5-((4-(6-bromothieno[2,3-d]pyrimidin-4-yl)piperazin-1-yl)methyl)-2-(2,4-dioxotetrahydropyrimidin-1(2H)-yl)isoindoline-1,3-dione]",25 to 40,18 to 25,B (80%< substrate protein remaining %≤ 100%),A (0% ≤ substrate protein remaining % ≤ 80%),B (80%< substrate protein remaining %≤ 100%),A (0% ≤ substrate protein remaining % ≤ 80%),A (0% ≤ substrate protein remaining % ≤ 80%),B (80%< substrate protein remaining %≤ 100%),30 to 40,20 to 25,–,–,30 to 40,30 to 40,40 to 60,20 to 40
"Cc1nc(N2CCN(Cc3ccc4c(c3)C(=O)N(N3CCC(=O)NC3=O)C4=O)CC2)c2c(-c3ccccc3)csc2n1 [GT-08099, 2-(2,4-dioxotetrahydropyrimidin-1(2H)-yl)-5-((4-(2-methyl-5-phenylthieno[2,3-d]pyrimidin-4-yl)piperazin-1-yl)methyl)isoindoline-1,3-dione]",18 to 25,25 to 40,B (80%< substrate protein remaining %≤ 100%),B (80%< substrate protein remaining %≤ 100%),B (80%< substrate protein remaining %≤ 100%),A (0% ≤ substrate protein remaining % ≤ 80%),B (80%< substrate protein remaining %≤ 100%),B (80%< substrate protein remaining %≤ 100%),25 to 30,30 to 40,–,–,25 to 30,5 to 10,20 to 40,20 to 40
"O=C1CCN(N2C(=O)c3ccc(CN4CCN(c5ncnc6sc7c(c56)CCCC7)CC4)cc3C2=O)C(=O)N1 [GT-08102, 2-(2,4-dioxotetrahydropyrimidin-1(2H)-yl)-5-((4-(5,6,7,8-tetrahydrobenzo[4,5]thieno[2,3-d]pyrimidin-4-yl)piperazin-1-yl)methyl)isoindoline-1,3-dione]",–,–,–,–,–,–,–,–,20 to 25,20 to 25,30 to 42,30 to 42,40 to 60,40 to 60,–,–
"O=C1CCN(N2Cc3cc(CN4CCC(c5ncnc6sc7c(c56)CCC7)CC4)ccc3C2=O)C(=O)N1 [GT-08113, 1-(5-((4-(6,7-dihydro-5H-cyclopenta[4,5]thieno[2,3-d]pyrimidin-4-yl)piperidin-1-yl)methyl)-1-oxoisoindolin-2-yl)dihydropyrimidine-2,4(1H,3H)-dione]",25 to 40,40 to 60,B (80%< substrate protein remaining %≤ 100%),A (0% ≤ substrate protein remaining % ≤ 80%),B (80%< substrate protein remaining %≤ 100%),A (0% ≤ substrate protein remaining % ≤ 80%),B (80%< substrate protein remaining %≤ 100%),B (80%< substrate protein remaining %≤ 100%),20 to 25,25 to 30,–,–,30 to 40,10 to 18,20 to 40,20 to 40
"CC(C)c1cc2c(C3=CCN(Cc4ccc5c(c4)CN(N4CCC(=O)NC4=O)C5=O)CC3)ncnc2s1 [GT-08158, 1-(5-((4-(6-isopropylthieno[2,3-d]pyrimidin-4-yl)-3,6-dihydropyridin-1(2H)-yl)methyl)-1-oxoisoindolin-2-yl)dihydropyrimidine-2,4(1H,3H)-dione]",18 to 25,80 to 100,–,–,–,–,–,–,25 to 30,60 to 80,5 to 10,80 to 100,30 to 40,100 to 110,20 to 40,40 to 60
"Cc1sc2ncnc(C3=CCN(Cc4ccc5c(c4)CN(N4CCC(=O)NC4=O)C5=O)CC3)c2c1C [GT-08159, 1-(5-((4-(5,6-dimethylthieno[2,3-d]pyrimidin-4-yl)-3,6-dihydropyridin-1(2H)-yl)methyl)-1-oxoisoindolin-2-yl)dihydropyrimidine-2,4(1H,3H)-dione]",10 to 15,18 to 25,–,–,–,–,–,–,10 to 15,25 to 30,0 to 5,60 to 80,30 to 40,80 to 100,15 to 20,20 to 40
"Nc1cccc2c1CN(C1CCC(=O)NC1=O)C2=O (stereo not drawn) [lenalidomide, reference compound]",15 to 18,10 to 15,–,–,–,–,–,–,20 to 25,15 to 20,10 to 20,30 to 42,10 to 18,10 to 18,0 to 1,5 to 10
